Laboratory results taken from patent US20250090528A1, “USE OF COMPLEMENT FACTOR D INHIBITOR FOR TREATMENT OF LUPUS NEPHRITIS AND IMMUNOGLOBULIN A NEPHROPATHY” (Alexion Pharmaceuticals, Inc., priority 2021, published 2025).
Like-named read-outs stand apart in the source and are kept apart here.

Tests used:
[1] = Single-ascending and multiple-ascending dose clinical PK studies in healthy volunteers; assay type: in vivo, human
From the text: Clinical pharmacokinetics (PK) and PD data have been generated for ALXN2050 in single-ascending and multiple-ascending dose studies in healthy volunteers.

[2] = test system: alternative pathway (AP) activity; assay: PD activity: AP inhibition in the AP Wieslab assay after multiple-dose administration in healthy participants; assay type: in vivo, human
Protocol: The 120 mg BID dosing regimen provided sustained AP inhibition (AP activity <10%) in healthy participants whose ALXN2050 concentrations achieved the 90% inhibitory concentration (IC90) threshold through the 12-hour dosing periods. Therefore, 120 mg BID is selected as the minimum therapeutic dose. […] Therefore, the 180 mg BID is selected as the likely therapeutic dose.
(§1) In addition, both dosage regimens provided complete (>90%) and sustained inhibition of AP activity throughout the 12-hour dosing interval. Therefore, 120 mg BID is selected as the minimum therapeutic dosage.

[3] = Multiple ascending dose study: safety and safety margin versus NOAEL exposures from nonclinical chronic toxicology studies; assay type: in vivo, human; details: 120 and 200 mg BID
Protocol: as §1

[4] = test system: lupus nephritis; details: LN patients, cited from earlier work
[5] = NOAEL from nonclinical chronic toxicology studies

CC(=O)c1nn(CC(=O)N2[C@H](C(=O)Nc3nc(Br)ccc3C)C[C@@]3(C)C[C@@H]23)c2ccc(-c3cnc(C)nc3)cc12 [ALXN2050]
intersubject variability in PK [1]: Large intersubject variability | increase in systemic exposure with dose ([1]; multiple-dose administration at steady state (Days 7 and 14), 40 mg BID to 200 mg BID): greater than dose-proportional increase | increase in systemic exposure with dose ([1]; single-dose administration): dose-proportional increase | inhibition of AP activity (complete and sustained) ([2]; 120 and 200 mg BID, throughout the 12-hour dosing interval): > 90% | activity at 120 mg ([2]; Homo sapiens, 120 mg BID, participants whose concentrations achieved the IC90 threshold through the 12-hour dosing periods, read-out: AP activity (sustained AP inhibition)): < 10% | PD activity (AP inhibition in the AP Wieslab assay) ([2]; multiple-dose 40 mg BID to 200 mg BID, healthy participants): increased with increasing dose | safety and efficacy of dose regimens ([3]; multiple ascending dose study): safe and effective | safety margin in AUC0-24 versus exposures at NOAEL [3, 5]: ≥ 10 fold | safety margin in maximum plasma concentration (Cmax) versus exposures at NOAEL [3, 5]: ≥ 10 fold

C=C/C=C/C[C@@H](C)[C@@H](O)[C@H]1C(=O)N[C@@H](CC)C(=O)N(C)CC(=O)N(C)[C@@H](CC(C)C)C(=O)N[C@@H](C(C)C)C(=O)N(C)[C@@H](CC(C)C)C(=O)N[C@@H](C)C(=O)N[C@H](C)C(=O)N(C)[C@@H](CC(C)C)C(=O)N(C)[C@@H](CC(C)C)C(=O)N(C)[C@@H](C(C)C)C(=O)N1C [voclosporin]
CRR ([4]; at one year, placebo 22.5%): 40.8%

belimumab: approved in the US for the treatment of LN
CRR ([4]; at two years, placebo 20.0%): 30.0%
